Measured values reported in patent US4623645A, “Substituted cephalosporin sulfoxides as anti-inflammatory and antidegenerative agents” (Merck & Co., Inc., priority 1983, dated 1986).

Molecular target: T1, Human Polymorphonuclear Leukocyte Elastase (Homo sapiens, UniProt P08246)
T1 sequence (P08246 30-247 limits assumed): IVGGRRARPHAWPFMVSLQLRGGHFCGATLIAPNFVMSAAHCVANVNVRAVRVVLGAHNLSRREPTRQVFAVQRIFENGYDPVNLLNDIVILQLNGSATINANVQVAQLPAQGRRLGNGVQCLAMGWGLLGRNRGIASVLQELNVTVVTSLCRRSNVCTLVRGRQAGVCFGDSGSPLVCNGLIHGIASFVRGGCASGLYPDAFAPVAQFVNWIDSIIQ
Assay: Inhibition of human polymorphonuclear leukocyte elastase via hydrolysis of N-t-Boc-alanyl-alanyl-prolyl-alanine-p-nitroanilide (Boc-AAPAN)
Type: biochemical
Conditions: 50% inhibition of the enzyme activity 2 minutes after zero time; crude human PMN extract, 0.2 mM Boc-AAPAN, pH 7.5; read-out: ED50 (the source's name) (converted)

| SMILES | IC50 |
| --- | --- |
| CO[C@H]1C(=O)N2C(C(=O)OCc3ccccc3)=C(COC(C)=O)C[S+]([O-])[C@H]12 (stereo partly drawn) [OCH3 / OCH2 .phi. / H, Benzyl 3-acetyloxymethyl-7α-methoxy-8-oxo-5-thia-1-azabicyclo[4.2.0]oct-2-ene-2-carboxylate-5-oxide] | 7.63 µM |
| COC(=O)C1=C(COC(C)=O)C[S+]([O-])C2C(OC)C(=O)N12 (stereo not shown) [OCH3 / OCH3 / H] | 25.2 µM |
| CC(=O)OCC1=C(C(=O)OC(C)(C)C)N2C(=O)C(Cl)(Cl)C2[S+]([O-])C1 (stereo not shown) [7,7-dichloro / OtBu / H] | 5.02 µM |
| CC(=O)OCC1=C(C(=O)OC(C)(C)C)N2C(=O)[C@H](F)[C@H]2[S+]([O-])C1 (stereo partly drawn) [F / OtBu / H, t-Butyl 3-acetyloxymethyl-7α-fluoro-8-oxo-5-thia-1-azabicyclo[4.2.0]oct-2-ene-2-carboxylate-5-oxide] | 5.76 µM |
